In PubChem BioAssay AID1918993 (Molecular Pharmacology Branch, DTP, NCI, 2023):

Test system: 233499-124-R-J3-PDC complex spheroid growth
Assay: Anticancer human tumor 233499-124-R-J3-PDC patient-derived colon adenocarcinoma cell line growth inhibition [AhR]
Conditions: for IC50: curve of first compound; for viability, T/C: stronger effect = lower value
Summary of the method: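 Spheroids combined tumor cells with HUVEC endothelial cells and human MSCs as stroma. AhR antagonists were paired with standard or investigational drugs, each dosed in half-log steps down from near clinical Cmax, or from 10 microM where Cmax was unknown.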

[1] = second compound 0.1 µM, first compound 0.0316 µM
[2] = second compound 0.1 µM, first compound 0.1 µM
[3] = second compound 0.1 µM, first compound 0.316 µM
[4] = second compound 0.1 µM, first compound 1 µM
[5] = second compound 0.1 µM, first compound 3.16 µM
[6] = second compound 0.1 µM, first compound 10 µM
[7] = second compound 0.316 µM, first compound 0.0316 µM
[8] = second compound 0.316 µM, first compound 0.1 µM
[9] = second compound 0.316 µM, first compound 0.316 µM
[10] = second compound 0.316 µM, first compound 1 µM
[11] = second compound 0.316 µM, first compound 3.16 µM
[12] = second compound 0.316 µM, first compound 10 µM
[13] = second compound 1 µM, first compound 0.0316 µM
[14] = second compound 1 µM, first compound 0.1 µM
[15] = second compound 1 µM, first compound 0.316 µM
[16] = second compound 1 µM, first compound 1 µM
[17] = second compound 1 µM, first compound 3.16 µM
[18] = second compound 1 µM, first compound 10 µM
[19] = second compound 3.16 µM, first compound 0.0316 µM
[20] = second compound 3.16 µM, first compound 0.1 µM
[21] = second compound 3.16 µM, first compound 0.316 µM
[22] = second compound 3.16 µM, first compound 1 µM
[23] = second compound 3.16 µM, first compound 3.16 µM
[24] = second compound 3.16 µM, first compound 10 µM
[25] = second compound 10 µM, first compound 0.0316 µM
[26] = second compound 10 µM, first compound 0.1 µM
[27] = second compound 10 µM, first compound 0.316 µM
[28] = second compound 10 µM, first compound 1 µM
[29] = second compound 10 µM, first compound 3.16 µM
[30] = second compound 10 µM, first compound 10 µM
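Further: spheroids exposed to agents for seven days before reading.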

For `CC(C)CC(NC(=O)C(Cc1ccccc1)NC(=O)c1cnccn1)B(O)O` (stereo not given) + Cc1ccccc1N=Nc1ccc(NC(=O)c2ccnn2C)c(C)c1, the IC50 (second compound 0.1 µM) was 16.3 nM, the IC50 (second compound 0.316 µM) was 16.5 nM and the IC50 (second compound 1 µM) was 18.2 nM. The IC50 (second compound 3.16 µM) was 15.6 nM, the IC50 (second compound 10 µM) was 17.3 nM and the viability, T/C (second compound 0.1 µM, first compound 0.000949 µM) was 103%. It also gave a viability, T/C (second compound 0.1 µM, first compound 0.003 µM) of 110%, a viability, T/C (second compound 0.1 µM, first compound 0.00949 µM) of 94.1% and a viability, T/C (second compound 0.1 µM, first compound 0.03 µM) of 0.26%. The viability, T/C (second compound 0.1 µM, first compound 0.0949 µM) was 0.06%, the viability, T/C (second compound 0.1 µM, first compound 0.3 µM) was 0.13% and the viability, T/C (second compound 0.316 µM, first compound 0.000949 µM) was 99.4%. For the same compound, the viability, T/C (second compound 0.316 µM, first compound 0.003 µM) was 108%, the viability, T/C (second compound 0.316 µM, first compound 0.00949 µM) was 94.5% and the viability, T/C (second compound 0.316 µM, first compound 0.03 µM) was 1.73%. It also gave a viability, T/C (second compound 0.316 µM, first compound 0.0949 µM) of 0.06%, a viability, T/C (second compound 0.316 µM, first compound 0.3 µM) of 0.13% and a viability, T/C (second compound 1 µM, first compound 0.000949 µM) of 111%. For the same compound, the viability, T/C (second compound 1 µM, first compound 0.003 µM) was 110%, the viability, T/C (second compound 1 µM, first compound 0.00949 µM) was 98.1% and the viability, T/C (second compound 1 µM, first compound 0.03 µM) was 12.9%. It also gave a viability, T/C (second compound 1 µM, first compound 0.0949 µM) of 0.64%, a viability, T/C (second compound 1 µM, first compound 0.3 µM) of 0.14% and a viability, T/C (second compound 3.16 µM, first compound 0.000949 µM) of 111%. It also gave a viability, T/C (second compound 3.16 µM, first compound 0.003 µM) of 96.9%, a viability, T/C (second compound 3.16 µM, first compound 0.00949 µM) of 83.8% and a viability, T/C (second compound 3.16 µM, first compound 0.03 µM) of 5.62%. The viability, T/C (second compound 3.16 µM, first compound 0.0949 µM) was 0.09%, the viability, T/C (second compound 3.16 µM, first compound 0.3 µM) was 0.14% and the viability, T/C (second compound 10 µM, first compound 0.000949 µM) was 106%. For the same compound, the viability, T/C (second compound 10 µM, first compound 0.003 µM) was 108%, the viability, T/C (second compound 10 µM, first compound 0.00949 µM) was 105% and the viability, T/C (second compound 10 µM, first compound 0.03 µM) was 0.37%. For the same compound, the viability, T/C (second compound 10 µM, first compound 0.0949 µM) was 0.18% and the viability, T/C (second compound 10 µM, first compound 0.3 µM) was 0.22%.

For `COc1cc(Nc2ncc3c(n2)-c2ccc(Cl)cc2C(c2c(F)cccc2OC)=NC3)ccc1C(=O)O` + Cc1ccccc1N=Nc1ccc(NC(=O)c2ccnn2C)c(C)c1, the IC50 (second compound 0.1 µM) was > 10000 nM, the IC50 (second compound 0.316 µM) was > 10000 nM and the IC50 (second compound 1 µM) was > 10000 nM. The IC50 (second compound 3.16 µM) was > 10000 nM, the IC50 (second compound 10 µM) was > 10000 nM and the viability, T/C [1] was 92.5%. The viability, T/C [2] was 81.9%, the viability, T/C [3] was 96.3% and the viability, T/C [4] was 98.5%. For the same compound, the viability, T/C [5] was 86.5%, the viability, T/C [6] was 96.7% and the viability, T/C [7] was 83.1%. It also gave a viability, T/C [8] of 77.5%, a viability, T/C [9] of 96.4% and a viability, T/C [10] of 93.1%. For the same compound, the viability, T/C [11] was 96.6%, the viability, T/C [12] was 84.2% and the viability, T/C [13] was 89%. For the same compound, the viability, T/C [14] was 93.2%, the viability, T/C [15] was 90.4% and the viability, T/C [16] was 87.2%. The viability, T/C [17] was 97.5%, the viability, T/C [18] was 92.1% and the viability, T/C [19] was 91.5%. It also gave a viability, T/C [20] of 80.4%, a viability, T/C [21] of 102% and a viability, T/C [22] of 105%. It also gave a viability, T/C [23] of 85.2%, a viability, T/C [24] of 100% and a viability, T/C [25] of 109%. The viability, T/C [26] was 101%, the viability, T/C [27] was 102% and the viability, T/C [28] was 101%. It also gave a viability, T/C [29] of 116% and a viability, T/C [30] of 115%.

For `NS(=O)(=O)OCC1CC(n2ccc3c(NC4CCc5ccccc54)ncnc32)CC1O` (stereo not given) + Cc1ccccc1N=Nc1ccc(NC(=O)c2ccnn2C)c(C)c1, the IC50 (second compound 0.1 µM) was 409 nM, the IC50 (second compound 0.316 µM) was 442 nM and the IC50 (second compound 1 µM) was 395 nM. The IC50 (second compound 3.16 µM) was 475 nM, the IC50 (second compound 10 µM) was 637 nM and the viability, T/C [1] was 110%. The viability, T/C [2] was 113%, the viability, T/C [3] was 61.3% and the viability, T/C [4] was 10.8%. The viability, T/C [5] was 2.55%, the viability, T/C [6] was 3.77% and the viability, T/C [7] was 125%. It also gave a viability, T/C [8] of 96.6%, a viability, T/C [9] of 68.1% and a viability, T/C [10] of 16.6%. The viability, T/C [11] was 3.6%, the viability, T/C [12] was 2.37% and the viability, T/C [13] was 116%. The viability, T/C [14] was 103%, the viability, T/C [15] was 58.2% and the viability, T/C [16] was 15.8%. For the same compound, the viability, T/C [17] was 3.88%, the viability, T/C [18] was 3.13% and the viability, T/C [19] was 115%. For the same compound, the viability, T/C [20] was 97.5%, the viability, T/C [21] was 70.8% and the viability, T/C [22] was 14.6%. The viability, T/C [23] was 2.81%, the viability, T/C [24] was 3.25% and the viability, T/C [25] was 109%. It also gave a viability, T/C [26] of 108%, a viability, T/C [27] of 83.6% and a viability, T/C [28] of 28.6%. For the same compound, the viability, T/C [29] was 4.02% and the viability, T/C [30] was 3.01%.

Compound `O=C(C=Cc1cccc(S(=O)(=O)Nc2ccccc2)c1)NO` + Cc1ccccc1N=Nc1ccc(NC(=O)c2ccnn2C)c(C)c1 has an IC50 (second compound 0.1 µM) of 6620 nM, an IC50 (second compound 0.316 µM) of 5960 nM and an IC50 (second compound 1 µM) of 6360 nM. It also gave an IC50 (second compound 3.16 µM) of 5560 nM, an IC50 (second compound 10 µM) of 4220 nM and a viability, T/C [1] of 98.3%. It also gave a viability, T/C [2] of 97.5%, a viability, T/C [3] of 110% and a viability, T/C [4] of 139%. The viability, T/C [5] was 127%, the viability, T/C [6] was 14% and the viability, T/C [7] was 95.2%. It also gave a viability, T/C [8] of 103%, a viability, T/C [9] of 127% and a viability, T/C [10] of 126%. It also gave a viability, T/C [11] of 104%, a viability, T/C [12] of 5.9% and a viability, T/C [13] of 110%. For the same compound, the viability, T/C [14] was 102%, the viability, T/C [15] was 116% and the viability, T/C [16] was 126%. The viability, T/C [17] was 111%, the viability, T/C [18] was 10.7% and the viability, T/C [19] was 102%. It also gave a viability, T/C [20] of 102%, a viability, T/C [21] of 105% and a viability, T/C [22] of 129%. It also gave a viability, T/C [23] of 89.6%, a viability, T/C [24] of 9.1% and a viability, T/C [25] of 94.4%. It also gave a viability, T/C [26] of 101%, a viability, T/C [27] of 98.5% and a viability, T/C [28] of 94.1%. For the same compound, the viability, T/C [29] was 65.4% and the viability, T/C [30] was 3.82%.
